Source: patent US5147888A, “N-terminal indolyy indolylalkylaminodiol β-amino acid derivatives” (G. D. Searle & Co., priority 1991, dated 1992)
pIC50: −log10 of the molar value. Square brackets hold non-standard residues; d marks the D form. Peptide text beside a SMILES is read from it. * marks the point of attachment. Sta = CC(C)C[C@H](N)[C@@H](O)CC(=O)O; Isovaleryl = CC(C)CC(=O)*

Tests used:
[1] = target: T1, human renin (Homo sapiens, UniProt P00797); experiment: in vitro human renin inhibition assay (angiotensin I determined by radioimmunoassay); assay type: biochemical; settings: pH 7.4, 37° C., two hours; for inhibition at 1 µM: 10^-6 M
T1 construct: purchased National Institute for Biological Standards, London
T1 sequence (P00797 67-406): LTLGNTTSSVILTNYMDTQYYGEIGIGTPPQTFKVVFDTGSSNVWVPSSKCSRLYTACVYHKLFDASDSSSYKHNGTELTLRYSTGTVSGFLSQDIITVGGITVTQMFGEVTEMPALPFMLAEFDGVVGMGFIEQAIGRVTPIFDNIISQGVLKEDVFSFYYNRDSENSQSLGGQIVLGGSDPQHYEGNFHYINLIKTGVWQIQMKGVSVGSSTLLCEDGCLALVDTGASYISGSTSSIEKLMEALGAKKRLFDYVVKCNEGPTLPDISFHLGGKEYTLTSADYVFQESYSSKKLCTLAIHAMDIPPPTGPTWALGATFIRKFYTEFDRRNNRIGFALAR
Protocol: Compounds of Formula I were evaluated as inhibitors of human renin in an in vitro assay. This human renin inhibition test has been previously described in detail [Papaioannou et al., Clinical and Experimental Hypertension, A7(9), 1243-1257 (1985)]. Human renin was obtained from the National Institute for Biologivcal Standards, London. An incubation mixture was prepared containing in a total volume of 0.25 mL 100 mM Tris-acetate buffer at pH 7.4, 25×10^-6 Goldblatt units of renin, 0.05 mL of plasma from human volunteers taking oral contraceptives,6.0 mM sodium EDTA, 2.4 mM phenylmethyl sulfonyl fluoride, 1.5 mM 8-hydroxyquinoline, 0.4 mg/mL BSA, and 0.024 mg/mL neomycin sulfate. This mixture was incubated for two hours at 37° C. in the presence or absence of renin inhibitors. The produced angiotensin I was determined by radioimmunoassay (New England Nuclear kit). Test compounds to be assayed were dissolved in DMSO and diluted with 100 mM Tris-acetate buffer at pH 7.4 containing 0.5% BSA to the appropriate Concentration. The final concentration of organic solvent in the reaction mixture was less than 1%. Control incubations at 37° C. were used to correct for effects of organic solvent on renin activity.

[2] = tested on: hog renin; settings: after the injection of hog renin into nephrectomized rats; cited from earlier work
[3] = tested on: pepsin; settings: cited from earlier work
[4] = tested on: cathepsin D; settings: cited from earlier work
[5] = tested on: renin; settings: cited from earlier work

SMILES: COc1cccc2cc(C(=O)NC[C@@H](C)C(=O)N[C@@H](CC3CCCCC3)[C@@H](O)[C@@H](O)CC(C)C)oc12 [Example 24, N-[3-[[1S,1R*-(cyclohexylmethyl)-2S*,3R*-dihydroxy-5-methylhexyl]amino]-2S*-methyl-3-oxopropyl]-7-methoxy-benzofuran-2-carboxamide]
- pIC50 [1]: 5.52

SMILES: CC(C)C[C@H](O)[C@H](O)[C@H](CC1CCCCC1)NC(=O)[C@H](C)CNC(=O)c1cc(=O)c2ccccc2o1 [Example 26, N-[3-[[1S,1R*-(cyclohexylmethyl)-2S*,3R*-dihydroxy-5-methylhexyl]amino]-2S*-methyl-3-oxopropyl]-4-oxo-4H-1-benzopyran-2-carboxamide]
- pIC50 [1]: 6.28

SMILES: CC(C)C[C@H](O)[C@H](O)[C@H](CC1CCCCC1)NC(=O)[C@H](C)CN(C)C(=O)CCCC1CCCCC1 (relative stereo) [Example 12, N-[3-[[1S,1R*-(cyclohexylmethyl)-2S*,3R*-dihydroxy-5-methylhexyl]amino]-2S*-methyl-3-oxopropyl]-N-methyl-cyclohexanebutanamide]
- inhibition at 1 µM [1]: 23%

SMILES: CC(C)C[C@H](O)[C@H](O)[C@H](CC1CCCCC1)NC(=O)[C@H](C)CNC(=O)CCCc1ccccc1 (relative stereo) [Example 6, N-[3-[[1S,1R*-(cyclohexylmethyl)-2S*,3R*-dihydroxy-5-methylhexyl]amino]-2S*-methyl-3-oxopropyl]benzenebutanamide]
- pIC50 [1]: 6.90

SMILES: CC(C)C[C@H](O)[C@H](O)[C@H](CC1CCCCC1)NC(=O)[C@H](C)CN(C)C(=O)CCCc1ccccc1 (relative stereo) [Example 10, N-[3-[[1S,1R*-(cyclohexylmethyl)-2S*,3R*-dihydroxy-5-methylhexyl]amino-]-2S*-methyl-3-oxopropyl]-N-methyl-benzenebutanamide]
- pIC50 [1]: 6.94

SMILES: CC(C)C[C@H](O)[C@H](O)[C@H](CC1CCCCC1)NC(=O)[C@H](C)CNC(=O)Cc1c[nH]c2ccccc12 [Example 21, N-[3-[[1S,1R*-(cyclohexylmethyl)-2S*,3R*-dihydroxy-5-methylhexyl]amino]-2S*-methyl-3-oxopropyl]-1H-indole3-acetamide]
- inhibition at 1 µM [1]: 30%

SMILES: CC(C)C[C@H](O)[C@H](O)[C@H](CC1CCCCC1)NC(=O)[C@H](C)CNC(=O)c1c[nH]c2ccccc12 [Example 20, N-[3-[[1S,1R*-(cyclohexylmethyl)-2S*,3R*-dihydroxy-5-methylhexyl]amino]-2S*-methyl-3-oxopropyl]-1H-indole3-carboxamide]
- inhibition at 10 µM ([1]; 10^-5 M): 27%

SMILES: CCn1cc(C(=O)NC[C@@H](C)C(=O)N[C@@H](CC2CCCCC2)[C@@H](O)[C@@H](O)CC(C)C)c(=O)c2ccc(C)nc21 [Example 16, N-[3-[[1S,1R*-(cyclohexylmethyl)-2S*,3R*-dihydroxy-5-methylhexylamino]amino]-2S*-methyl-3-oxopropyl-nalidixylamide]
- pIC50 [1]: 6.35

SMILES: COc1ccc(CCC(=O)NC[C@@H](C)C(=O)N[C@@H](CC2CCCCC2)[C@@H](O)[C@@H](O)CC(C)C)cc1 [Example 13, N-[3-[[1S,1R*-(cyclohexylmethyl)-2S*,3R*-dihydroxy-5-methylhexyl]amino]-2S*-methyl-3-oxopropyl]-4-methoxybenzenepropanamide]
- inhibition at 0.5 µM ([1]; 5 × 10^-7 M): 30%

SMILES: CC(C)C[C@H](O)[C@H](O)[C@H](CC1CCCCC1)NC(=O)[C@H](C)CNC(=O)c1cc2ccccc2[nH]1 (relative stereo) [Example 7, N-[3-[[1S,1R*-(cyclohexylmethyl)-2S*,3R*-dihydroxy-5-methylhexyl]amino]-2S*-methyl-3-oxopropyl]-1H-indole-2-carboxamide]
- pIC50 [1]: 7.59

SMILES: CC(C)CC(=O)N[C@H](C(=O)N[C@H](C(=O)N[C@@H](CC(C)C)[C@@H](O)CC(=O)N[C@@H](C)C(=O)N[C@@H](CC(C)C)[C@@H](O)CC(=O)O)C(C)C)C(C)C [pepstatin] (Isovaleryl-VV[Sta]A[Sta]-OH)
- blood pressure reduction in vivo [2]: reduce blood pressure
- inhibitor of aspartyl proteases: pepsin [3]: inhibitor
- inhibitor of aspartyl proteases: cathepsin D [4]: inhibitor
- inhibitor of aspartyl proteases: renin [5]: inhibitor

SMILES: CC(C)C[C@H](O)[C@H](O)[C@H](CC1CCCCC1)NC(=O)[C@H](C)CNC(=O)c1cc2cccc(Cl)c2o1 [Example 23]
- pIC50 [1]: 5.74

SMILES: CC(C)C[C@H](O)[C@H](O)[C@H](CC1CCCCC1)NC(=O)[C@H](C)CNC(=O)CCCC1CCCCC1 (relative stereo) [Example 11, N-[3-[[1S,1R*-(cyclohexylmethyl)-2S*,3R*-dihydroxy-5-methylhexyl]amino]-2S*-methyl-3-oxopropyl]cyclohexane-butanamide]
- pIC50 [1]: 6.74

SMILES: CC(C)C[C@H](O)[C@H](O)[C@H](CC1CCCCC1)NC(=O)[C@H](C)CNC(=O)CCc1c[nH]c2ccccc12 [Example 22, N-[3-[[1S,1R*-(cyclohexylmethyl)-2S*,3R*-dihydroxy-5-methylhexyl]amino]-2S*-methyl-3-oxopropyl]-1H-indole3-propanamide]
- pIC50 [1]: 7.52

SMILES: CC(C)C[C@H](O)[C@H](O)[C@H](CC1CCCCC1)NC(=O)[C@H](C)CNC(=O)c1coc2ccccc2c1=O [Example 25, N-[3-[[1S,1R*-(cyclohexylmethyl)-2S*,3R*-dihydroxy-5-methyhexyl]amino]-2S*- methyl-3-oxopropyl]-4-oxo-4H-1-benzopyran-3-carboxamide]
- pIC50 [1]: 5.96
